Results as given in patent publication US12168673B2 (Mitopower, Inc., priority 2022, dated 2024).

Key:
[1] = test system: primary human hepatocytes; test: NAD+ in primary human hepatocytes at 250 μM (Example 10); format: cell-based; conditions: four hours of incubation
Procedure: (§1) Cryopreserved primary human hepatocytes, sourced from Lonza were cultured and were seeded into 6 well dishes with 0.5 million cells per well. […] The cells were later spun down and extracted. The supernatant was tested via LCMS/MS for NAD^+.

HepG2 cells = test: Cellular NAD+ levels in HepG2 cells, NAD cycling assay; format: cell-based; conditions: for NAD+ level increase at the lowest concentration: HepG2, 10 μM
Procedure: HepG2 cells were seeded at densities of 1 million cells per well in a 6 well plate. The next day, cells were treated with test compounds for 4 hours and were harvested using the below protocol. Each well was washed once with 2 mL ice cold PBS which was removed and 400 μL 2M HClO4 (perchloric acid) was added to each well, which was scraped and the residue transferred to 1.5 mL tubes and spun down. 100 μL of the supernatant was transferred to a clean 1.5 mL vial and 150 μL KOH/MOPS 2M/0.6M (neutralization buffer) was added to each vial under vortex which was spun down. The pH was measured following the NAD cycling protocol.
NAD standards were prepared from 0 to 0.5 μM in water as per Table 7.
The cycling reaction was prepared as follows. 10 μl samples were added followed by water to bring the volume up to 25 μl. 25 μl of each standard was used in duplicates for the reaction. Then 50 μl of mix A (cycling mix) was added to the sample and standards. Mix A contained the following:
Reaction was initiated using 25 μL enzyme mix (15 U/ml of alcohol dehydrogenase+15 U/mL of malate dehydrogenase). The samples were incubated at 37° C. for 30 minutes in a water bath and the reaction terminated by heating in a water bath for 5 minutes at 80° C. Then 25 μl of the sample was used in the detection step. 100 μl mix B, which contains following components were added to the sample.
Reaction was initiated using a start reagent (prepared by mixing 10 μl of malate dehydrogenase and 10 μl of glutamate oxaloacetic transaminase in 1 ml of water. The reading were measured at 340 nm in a envision plate reader. The results are shown in FIGS. 4A-4D.

[2] = test system: primary human hepatocytes; test: NAD+ in primary human hepatocytes (Example 12); format: cell-based; conditions: 10 μM, four hours of incubation
Procedure: as §1

[3] = Human hepatocyte clearance; format: in vitro ADME; conditions: human hepatocytes, 1 μM; for half-life at 1 μM: 0-90 min, read-out: T½; for hepatocyte CLint at 1 μM: read-out: Intrinsic Clearance (CL Int)
Procedure: (§2) A hepatocyte vial was taken out from the liquid nitrogen tank and was thawed in a water bath maintained at 37° C. The thawed cell suspension was transferred into a torsion tube containing 50 mL of thawing media (Xenotech). The thawing media containing hepatocytes was centrifuged at 1000 rpm for 5 min, the supernatant was discarded and the pellet was resuspended in 2 ml of Xenotech OptiIncubate Media. The cells were counted by using a haemocytometer after mixing an aliquot of cell suspension with equal volume of trypan blue. The cell suspension was diluted to a working density of 2 million cells with DMEM media without FBS/incubation media.
(§3) The assay was performed in duplicates (n=2). 150 μL of 2 million cell working stock of hepatocyte cell suspension was added to a 24 well plate and incubated in a 37° C. incubator, with speed of 500 RPM for 10 min. 150 μL of 2 μM working stock of test compound was incubated separately. The reaction at 0, 15, 30, 60 and 90 min was stopped by precipitating 20 μL of incubation mixture with 200 μL of acetonitrile containing internal standard. […] The supernatant was separated and diluted 1:1 with water before injecting in LC-MS/MS analysis.

human hepatocytes [4] = test: Human hepatocyte clearance; format: in vitro ADME
Procedure: as §2, §3

human hepatocytes [5] = test: Human hepatocyte stability
Procedure: 10 mM stock solution of test compound was prepared in DMSO and diluted to a concentration of 1 mM with DMSO. Working concentration of 2 μM was prepared by further dilution with PBS. Preincubation mixture of 150 μL of hepatocyte cell suspension (1,000,000 cells/mL, INVITROGRO HT medium buffer), was added to vials for preincubation for 10 min @37° C.
150 μL of 2 μM working stock of the test compound was added to the cell suspension and incubated at @37 C at 500 rpm. The reaction was stopped at 0, 15, 30, 60 and 90 min by precipitating 50 μL of the incubation mixture with 150 μL of acetonitrile. Samples were vortexed for 5 min at 1200 rpm and centrifuged at 4000 rpm for 10 min. 150 μL of the supernatant was diluted with 150 μL of water and injected in MS system (SCIEX, API 4500 Q Trap) for analysis.

Compound | NAD+ level increase compared to untreated cells [1] | NAD+ level increase at the lowest concentration (HepG2 cells) | NAD+ level increase compared to untreated cells [2] | half-life at 1 μM [3] [min] | hepatocyte CLint at 1 μM [3] [µL/min/1e6 cells] | Remarks (clearance class) (human hepatocytes [4]) | % Parent Remaining (human hepatocytes [5]; 0 mins) [%] | % Parent Remaining (human hepatocytes [5]; 15 mins) [%] | % Parent Remaining (human hepatocytes [5]; 30 mins) [%] | % Parent Remaining (human hepatocytes [5]; 60 mins) [%] | % Parent Remaining (human hepatocytes [5]; 90 mins) [%] | NAD+ level increase compared to nicotinic acid (HepG2 cells; HepG2, all concentrations (10-250 μM)) | clearance in human hepatocytes (in words) (human hepatocytes [5])
COC(=O)[C@@H](C)N[P@](=O)(OC[C@H]1OC(OC(=O)c2cccnc2)[C@H](O)[C@@H]1O)Oc1ccccc1 (single isomer, unassigned) [Compound 103] | statistically significant NAD^+ level increases | statistically significant increase | statistically significant NAD^+ level increases | 22.2 | 31.3 | High | 100 | 63 | 40 | 15 | 5 |  | 
COC(=O)[C@@H](C)N[P@@](=O)(OC[C@H]1OC(OC(=O)c2cccnc2)[C@H](O)[C@@H]1O)Oc1ccccc1 (single isomer, unassigned) [Compound 104] | statistically significant NAD^+ level increases | statistically significant increase | statistically significant NAD^+ level increases | 48.1 | 14.4 | medium clearance | 100 | 78 | 65 | 45 | 24 | statistically significant increase | medium clearance
